Source: US10329249B1, “Sulindac derivatives” (KING SAUD UNIVERSITY, priority 2018, dated 2019)
Marks after values point to notes of the source that are not given here.

Legend:
Total Protein (TP) = test: Total protein in gastric juice; type: in vivo, rats; conditions: Sulindac 100, Compound 8 150, mean ±SEM
Procedure: Total Protein (TP), or dissolved proteins in gastric juice, was estimated through alcohol precipitation. 90% alcohol was added to gastric juice at a 9:1 ratio, and then 0.1 ml of the alcoholic precipitate of gastric juice was dissolved in 1 ml of 0.1 N NaOH, and 0.05 ml of this suspension was placed in a test tube. 4 ml of an alkaline mixture was then added to the test tube and incubated at room temperature for 10 minutes. 0.4 ml of a phenol reagent was then added, and after a further 10 minutes, once color had developed, a reading was taken against a blank containing distilled water at 610 nm on a spectrophotometer. TP content was then calculated from a standard curve prepared with bovine albumin and expressed as g/L of gastric juice. Results were calculated by ANOVA followed by Dunnett's multiple comparison test and are summarized in Table 9, represent mean±SEM; **=p<0.01; ***=p<0.001 (n=6).

[1] = test system: yeast-induced hyperthermia; test: Anti-pyretic study, brewer's yeast-induced hyperthermia; type: in vivo, mice; conditions: mean ±SEM; for Rectal temperature 30 min: 30 min after drug; for Rectal temperature 30 min / Rectal temperature 60 min / Rectal temperature 120 min: Compound 8 150 mg/kg; for Rectal temperature 30 min / Rectal temperature 60 min / Rectal temperature 120 min / Rectal temperature, Control: Sulindac 100 mg/kg; for Rectal temperature 60 min: 60 min after drug; for Rectal temperature 120 min: 120 min after drug; for Rectal temperature, Control: after yeast injection, pre-drug, groups Compound 8 150 mg/kg; for Rectal temperature, Normal: before yeast, groups later given Compound 8 150 mg/kg or Sulindac 100 mg/kg
Procedure: All animal experiments used healthy male albino rats (200 g-220 g) and mice. The animals were kept in standard plastic animal cages in groups of six animals each with a 12 hour light and dark cycle. The animals were acclimatized to laboratory conditions for a week prior to the experiments.
In an anti-pyretic study, hyperthermia was induced in mice by subcutaneous injection of 20 mL/kg of a 20% aqueous suspension of brewer's yeast in the back below of nape of the neck. The animals were fasted for 24 hours. Water was made available. Control rectal temperature was recorded 24 hours after the yeast injection to determine the pyretic response to yeast. Rectal temperature recordings were then taken 1 hour prior to drug administration in the fevered animals to serve as a pre drug control. […]

[2] = LD50 by the Karber method; type: in vivo; conditions: 24 hours observation
Procedure: In a study of the LD50 of sulindac derivative Compound 8, the LD50 (lethal dose 50%) was calculated for compound 8 by the Karber method. For determination of LD50, an observation was made for 24 hours, and symptoms of toxicity and rate of mortality were noted. Expired animals were counted at the end of the study period for the calculation of LD50 according to: LD50=LD100−Σ(a×b)/n, where n is the total number of animals in a group, a is the difference between two successive doses of administered extract/substance, b is the average number of dead animals in two successive doses, and LD100 is the lethal dose causing 100% death of all test animals.

[3] = DPPH free radical scavenging (antioxidant activity); conditions: 100 μg/mL compound in 3 mL 0.004% DPPH, 520 nm after 30 min; mean of three replicates ±SD
Procedure: The antioxidant activity was measured based on the scavenging activity of the stable DPPH free radical. 100 μg/mL of the twenty-five sulindac derivative compounds were added to 3 mL 0.004% DPPH solution. Methanol was added to 3 mL 0.004% DPPH solution for the control sample. Absorbance was determined at 520 nm after 30 min. Butylated hydroxytoluene (BHT) was used as a reference drug. The percent inhibition was calculated by the equation:
[formula] where At is the absorbance of the compound and A0 is the absorbance of the control.

Compound: CC1=C(CC(=O)O)c2cc(F)ccc2/C1=C\c1ccc([S+](C)[O-])cc1 (stereo not shown) [Sulindac]
- TP (Total Protein (TP); drug alone, no ethanol): 105.78 ± 1.43*** g/L
- TP (Total Protein (TP); with 80% Ethanol 1 mL): 93.81 ± 3.05*** g/L
- Rectal temperature 30 min [1]: 37.46 ± 0.14 °C
- Rectal temperature 60 min [1]: 37.16 ± 0.09 °C
- Rectal temperature 120 min [1]: 36.23 ± 0.08 °C
- Rectal temperature, Control [1]: 38.21 ± 0.31 °C
- Rectal temperature, Normal [1]: 35.21 ± 0.11 °C

Compound: CC1=C(CC(=O)N/N=C\c2ccc(N(C)C)cc2)c2cc(F)ccc2/C1=C\c1ccc([S+](C)[O-])cc1 (stereo not shown) [Compound 8]
- # Dead ([2]; dose 100 mg/kg): 0
- # Dead ([2]; dose 200 mg/kg): 0
- # Dead ([2]; dose 400 mg/kg): 1
- # Dead ([2]; dose 800 mg/kg): 3
- # Dead ([2]; dose 1600 mg/kg): 5
- # Dead ([2]; dose 2000 mg/kg): 9
- LD50 at 24 h ([2]; in vivo, Karber method, LD50=LD100−Σ(a×b)/n): 1310 mg/kg
- TP (Total Protein (TP); drug alone, no ethanol): 114.57 ± 1.89*** g/L
- TP (Total Protein (TP); with 80% Ethanol 1 mL): 100.99 ± 2.42*** g/L
- Rectal temperature 30 min [1]: 38.15 ± 0.10 °C
- Rectal temperature 60 min [1]: 37.83 ± 0.15 °C
- Rectal temperature 120 min [1]: 37.33 ± 0.12 °C
- Rectal temperature, Control [1]: 38.38 ± 0.19 °C
- Rectal temperature, Normal [1]: 35.16 ± 0.10 °C
- Scavenging Effect [3]: 85.10 ± 6.80%
